Measurements published in ChEMBL document CHEMBL1201862, “PubChem BioAssay data set” (2004).
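Method: 48-hour compound exposure of cells in 96-well plates, five concentrations, linear interpolation of endpoints. GI50 is the concentration that inhibits growth by half.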 Calls of active or inactive are those of the source. No stated cut-off is given here; in the data, active = GI50 up to about 1.1 µM and inactive = higher.

How the values were obtained:
Experiment in all cases: growth of human tumour cells (NCI), 48 h
OVCAR-8 = test system: OVCAR-8
UACC-62 = test system: UACC-62
NCI-H522 = test system: NCI-H522
LOX IMVI = test system: LOX IMVI
MCF7 = test system: MCF7
M14 = test system: M14
HCC 2998 = test system: HCC 2998
A549 = test system: A549
RXF 393 = test system: RXF 393
SF-268 = test system: SF-268
HOP-92 = test system: HOP-92
NCI-H460 = test system: NCI-H460
MDA-N = test system: MDA-N
UO-31 = test system: UO-31
786-0 = test system: 786-0
OVCAR-5 = test system: OVCAR-5
Hs-578T = test system: Hs-578T
SW-620 = test system: SW-620
SF-539 = test system: SF-539
NCI/ADR-RES = test system: NCI/ADR-RES
SNB-75 = test system: SNB-75
DU-145 = test system: DU-145
PC-3 = test system: PC-3
BT-549 = test system: BT-549
SNB-19 = test system: SNB-19
RPMI-8226 = test system: RPMI-8226
MDA-MB-231 = test system: MDA-MB-231
SF-295 = test system: SF-295
TK-10 = test system: TK-10
SK-MEL-28 = test system: SK-MEL-28
SN12C = test system: SN12C
A498 = test system: A498
EKVX = test system: EKVX
SK-MEL-5 = test system: SK-MEL-5
NCI-H23 = test system: NCI-H23
KM12 = test system: KM12
CCRF-CEM = test system: CCRF-CEM
OVCAR-3 = test system: OVCAR-3
HOP-62 = test system: HOP-62
HL-60 = test system: HL-60
U-251 = test system: U-251
CAKI-1 = test system: CAKI-1
HCT-116 = test system: HCT-116
ACHN = test system: ACHN
Malme-3M = test system: Malme-3M
MDA-MB-435 = test system: MDA-MB-435
HT-29 = test system: HT-29
HCT-15 = test system: HCT-15
SK-OV-3 = test system: SK-OV-3
K562 = test system: K562
SK-MEL-2 = test system: SK-MEL-2
T47D = test system: T47D
IGROV-1 = test system: IGROV-1
OVCAR-4 = test system: OVCAR-4
UACC-257 = test system: UACC-257
MOLT-4 = test system: MOLT-4
COLO 205 = test system: COLO 205
SR = test system: SR
NCI-H226 = test system: NCI-H226

For COc1ccc(-c2nc(SCC(=O)N/N=C/c3ccc([N+](=O)[O-])cc3)[nH]c2-c2ccc(OC)cc2)cc1, the GI50 (OVCAR-8) was 17.7 µM (inactive), the GI50 (UACC-62) was 7.01 µM (inactive) and the GI50 (NCI-H522) was 6.95 µM (inactive). The GI50 (LOX IMVI) was 14 µM (inactive), the GI50 (MCF7) was 4.44 µM (inactive) and the GI50 (M14) was 12.2 µM (inactive). The GI50 (HCC 2998) was 12.1 µM (inactive), the GI50 (A549) was 6.95 µM (inactive) and the GI50 (RXF 393) was 11.4 µM (inactive). The GI50 (SF-268) was 25.7 µM (inactive), the GI50 (HOP-92) was 12.6 µM (inactive) and the GI50 (NCI-H460) was 10.3 µM (inactive). The GI50 (MDA-N) was 3.16 µM (inactive), the GI50 (UO-31) was 18.8 µM (inactive) and the GI50 (786-0) was 20 µM (inactive). For the same molecule, the GI50 (OVCAR-5) was 16.2 µM (inactive), the GI50 (Hs-578T) was 14.4 µM (inactive) and the GI50 (SW-620) was 12.6 µM (inactive). The GI50 (SF-539) was 11.9 µM (inactive), the GI50 (NCI/ADR-RES) was 19.1 µM (inactive) and the GI50 (SNB-75) was 15.2 µM (inactive). For the same molecule, the GI50 (DU-145) was 28 µM (inactive), the GI50 (PC-3) was 6.49 µM (inactive) and the GI50 (BT-549) was 19.1 µM (inactive). The GI50 (SNB-19) was 24.4 µM (inactive), the GI50 (RPMI-8226) was 8.91 µM (inactive) and the GI50 (MDA-MB-231) was 21.2 µM (inactive). The GI50 (SF-295) was 8.05 µM (inactive), the GI50 (TK-10) was 22.3 µM (inactive) and the GI50 (SK-MEL-28) was 21.7 µM (inactive). The GI50 (SN12C) was 16.6 µM (inactive), the GI50 (A498) was 14.3 µM (inactive) and the GI50 (EKVX) was 16.4 µM (inactive). For the same molecule, the GI50 (SK-MEL-5) was 6.27 µM (inactive), the GI50 (NCI-H23) was 21.9 µM (inactive) and the GI50 (KM12) was 4.86 µM (inactive). For the same molecule, the GI50 (CCRF-CEM) was 3.18 µM (inactive), the GI50 (OVCAR-3) was 10.4 µM (inactive) and the GI50 (HOP-62) was 16.7 µM (inactive). The GI50 (HL-60) was 4.07 µM (inactive), the GI50 (U-251) was 11.7 µM (inactive) and the GI50 (CAKI-1) was 28.1 µM (inactive). For the same molecule, the GI50 (HCT-116) was 8.49 µM (inactive), the GI50 (ACHN) was 20.1 µM (inactive) and the GI50 (Malme-3M) was 17.5 µM (inactive). For the same molecule, the GI50 (MDA-MB-435) was 3.24 µM (inactive), the GI50 (HT-29) was 8.41 µM (inactive) and the GI50 (HCT-15) was 8.55 µM. The GI50 (SK-OV-3) was 20.2 µM (inactive), the GI50 (K562) was 7.45 µM (inactive) and the GI50 (SK-MEL-2) was 6.47 µM (inactive). For the same molecule, the GI50 (T47D) was 15.8 µM (inactive), the GI50 (IGROV-1) was 10.8 µM (inactive) and the GI50 (OVCAR-4) was 39.4 µM (inactive). The GI50 (UACC-257) was 16.4 µM (inactive), the GI50 (MOLT-4) was 7.66 µM (inactive) and the GI50 (COLO 205) was 2.23 µM (inactive).
In the case of COc1cc(S(=O)(=O)Nc2ccc(-c3csc(N4C(=O)CSC4c4cccc(Oc5ccccc5)c4)n3)cc2)ccc1Cl (stereo not drawn), the GI50 (OVCAR-8) is reported as 47 µM (inactive), the GI50 (UACC-62) is reported as 36.9 µM (inactive) and the GI50 (NCI-H522) is reported as 24.2 µM (inactive). The GI50 (SR) was 33.7 µM (inactive), the GI50 (LOX IMVI) was 32.7 µM (inactive) and the GI50 (MCF7) was 20.6 µM (inactive). For the same molecule, the GI50 (M14) was 53 µM (inactive), the GI50 (RXF 393) was 16.7 µM (inactive) and the GI50 (SF-268) was 24.3 µM (inactive). The GI50 (HOP-92) was 46.7 µM (inactive), the GI50 (MDA-N) was 23.9 µM (inactive) and the GI50 (UO-31) was 47.5 µM (inactive). The GI50 (786-0) was 46.9 µM (inactive), the GI50 (OVCAR-5) was > 100 µM (inactive) and the GI50 (Hs-578T) was 27.4 µM (inactive). For the same molecule, the GI50 (SW-620) was 43.8 µM (inactive), the GI50 (SF-539) was 31.9 µM (inactive) and the GI50 (NCI/ADR-RES) was > 100 µM (inactive). The GI50 (SNB-75) was 58.1 µM (inactive), the GI50 (DU-145) was 48.4 µM (inactive) and the GI50 (PC-3) was 32.7 µM (inactive). The GI50 (BT-549) was 23.7 µM (inactive), the GI50 (NCI-H226) was 32.1 µM (inactive) and the GI50 (SNB-19) was 77.8 µM (inactive). For the same molecule, the GI50 (RPMI-8226) was 39.2 µM (inactive), the GI50 (SF-295) was 65.8 µM (inactive) and the GI50 (SK-MEL-28) was 23 µM (inactive). For the same molecule, the GI50 (SN12C) was 61.4 µM (inactive), the GI50 (A498) was 59 µM (inactive) and the GI50 (EKVX) was 44.2 µM (inactive). For the same molecule, the GI50 (SK-MEL-5) was 32.8 µM (inactive), the GI50 (NCI-H23) was 40.4 µM (inactive) and the GI50 (KM12) was 35.2 µM (inactive). The GI50 (CCRF-CEM) was 23.8 µM (inactive), the GI50 (OVCAR-3) was 64.3 µM (inactive) and the GI50 (HOP-62) was 74.3 µM (inactive). The GI50 (HL-60) was 21.1 µM (inactive), the GI50 (CAKI-1) was > 100 µM (inactive) and the GI50 (HCT-116) was 29.9 µM (inactive). The GI50 (ACHN) was > 100 µM (inactive), the GI50 (Malme-3M) was 43.4 µM (inactive) and the GI50 (MDA-MB-435) was 33.5 µM (inactive). The GI50 (HT-29) was 47 µM (inactive), the GI50 (HCT-15) was 61.7 µM and the GI50 (SK-OV-3) was 71 µM (inactive). The GI50 (K562) was 31.9 µM (inactive), the GI50 (T47D) was 7.48 µM (inactive) and the GI50 (IGROV-1) was 50.7 µM (inactive). For the same molecule, the GI50 (OVCAR-4) was 52.6 µM (inactive), the GI50 (MOLT-4) was 52 µM (inactive) and the GI50 (COLO 205) was 29.4 µM (inactive).
